ChEMBL document CHEMBL1201862, “PubChem BioAssay data set” (2004)
Active and inactive are the calls of the source.

Columns and labels:
[1] = Luminescence Cell-Based Dose Retest to Confirm Inhibitors of Cancer Stem Cells. [Related pubchem assays (depositor defined):AID2717, AID2721]; assay type: functional; details: Homo sapiens
[2] = viability of HCT116 lacking mutant beta-catenin – cell-based, human colon tumor, dose response (AID 1045); assay type: functional;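 also: HCT116 colon tumor cells with beta catenin knocked out; cells exposed to compound for 60 hours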
Nonstructural protein 1 = Nonstructural protein 1 (Influenza A virus, UniProt Q194T2); assay type: functional, Influenza A virus (A/California/07/2009(H1N1))
[3] = viability of uninfected HEp-2 cells – cell-based, HTS, cytotoxicity control for RSV inhibitor project, dose response (AID 2410); assay type: functional; details: human respiratory syncytial virus
[4] = reduced cellular PGC1a acetyl-lysine signal – cell-based, cherry-picked samples, dose response (AID 720514); assay type: functional;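 also: potency may reflect raised or lowered acetylation signal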
[5] = viability of PTEN-deleted HCT116 cells – cell-based, HCT116 PTEN knockout, dose response (AID 1047); assay type: functional;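 also: HCT116 colon tumor cells with PTEN knocked out; cells exposed to compound for 60 hours before readout; potency for loss of cell viability measured by luminescence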
[6] = viability loss in HepG2 liver cells – cell-based, ATP luminescence, cherry-pick, set 6, cytotoxicity control, dose response (AID 1053125); assay type: functional
cells [7] = test: cells
cells [8] = details: A549
cells [9] = details: HEK293
[10] = target: T1, Oxysterols receptor LXR-beta (Homo sapiens, UniProt P55055); assay type: functional, cell-based;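 also: agonist activity at LXR measured by a cell-based luminescence readout across a dose range, run as a counterscreen for daf-12 agonists; potency for activation of Gal4-LXR reporter so compounds are agonists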
T1 sequence (P55055 whole entry): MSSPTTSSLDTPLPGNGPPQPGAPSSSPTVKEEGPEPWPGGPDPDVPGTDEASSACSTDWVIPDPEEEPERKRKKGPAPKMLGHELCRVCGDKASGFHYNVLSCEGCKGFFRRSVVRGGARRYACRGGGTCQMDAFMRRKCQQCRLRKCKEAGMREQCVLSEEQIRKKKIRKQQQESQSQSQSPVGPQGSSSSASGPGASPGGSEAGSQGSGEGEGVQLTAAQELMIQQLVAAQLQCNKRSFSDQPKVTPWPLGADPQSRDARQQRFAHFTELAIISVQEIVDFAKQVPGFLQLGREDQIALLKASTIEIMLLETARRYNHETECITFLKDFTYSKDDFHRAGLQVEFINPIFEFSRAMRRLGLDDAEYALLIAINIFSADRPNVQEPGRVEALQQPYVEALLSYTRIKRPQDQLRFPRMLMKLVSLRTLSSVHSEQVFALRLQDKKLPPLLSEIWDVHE

Protein skinhead-1 = target: T2, Protein skinhead-1 (Caenorhabditis elegans, UniProt P34707); assay type: functional
T2 sequence (P34707 whole entry): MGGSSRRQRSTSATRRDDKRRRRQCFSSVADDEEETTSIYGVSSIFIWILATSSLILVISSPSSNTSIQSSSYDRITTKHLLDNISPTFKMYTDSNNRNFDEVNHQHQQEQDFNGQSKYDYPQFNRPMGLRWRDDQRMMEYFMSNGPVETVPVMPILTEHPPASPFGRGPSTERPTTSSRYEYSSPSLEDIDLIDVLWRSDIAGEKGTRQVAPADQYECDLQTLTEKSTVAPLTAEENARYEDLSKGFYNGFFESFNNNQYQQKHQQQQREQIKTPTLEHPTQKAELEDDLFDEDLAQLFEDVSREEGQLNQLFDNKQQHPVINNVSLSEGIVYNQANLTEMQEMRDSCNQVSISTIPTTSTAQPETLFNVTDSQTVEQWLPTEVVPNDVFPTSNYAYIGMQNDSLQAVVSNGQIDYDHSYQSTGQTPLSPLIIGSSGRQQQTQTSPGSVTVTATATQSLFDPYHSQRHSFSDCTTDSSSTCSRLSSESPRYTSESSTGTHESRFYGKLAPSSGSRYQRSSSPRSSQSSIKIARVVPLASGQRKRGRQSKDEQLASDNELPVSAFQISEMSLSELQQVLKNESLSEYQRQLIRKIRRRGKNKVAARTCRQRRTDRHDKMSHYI

H9c2 = test: cells; assay type: functional, cell-based; details: Rattus norvegicus, H9c2, Myocardium;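 also: confirmatory concentration-response retest of ultra-high-throughput screening hits for modulation of myocardial damage; cell death induced by hydrogen peroxide oxidative stress; compound pretreatment for 60 min then peroxide exposure for 2 h; potency is for protecting the cells against peroxide damage rather than for killing them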
[11] = target: Endoplasmic reticulum aminopeptidase 1 (Homo sapiens, UniProt Q9NZ08); test: inhibition of human ERAP1 enzyme activity – biochemical, cherry-pick, set 2, plate reader, dose response (AID 743314)
[12] = inhibition of ADAM10 peptide cleavage – biochemical, FRET peptide substrate, recombinant human ADAM10, selectivity assay for ADAM17 exosite inhibitor project, dose response (AID 743259);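 also: ADAM10 enzyme cleaving a FRET peptide substrate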
[13] = target: T3, Disintegrin and metalloproteinase domain-containing protein 17 (Homo sapiens, UniProt P78536); test: exosite inhibitors of ADAM17, dose response, biochemical (AID 743260)
[14] = Luminescence-based cell-based high throughput dose response assay to identify activators of the DAF-12 from the parasite S. stercoralis (ssDAF-12).; assay type: functional
[15] = target: T1, Oxysterols receptor LXR-beta; test: LXR agonists, Gal4 luciferase reporter, dose response, counter-screen for ssDAF-12 agonist project, cell-based, luminescence, HEK293, S. stercoralis campaign (AID 720737); assay type: functional; details: read-out: IC50 (the source's name)
[16] = target: 1-phosphatidylinositol 4,5-bisphosphate phosphodiesterase gamma-1 (Homo sapiens, UniProt P19174); test: Counterscreen for inhibitors of phospholipase C isozymes (PLC-B3): Fluorescence-based biochemical high throughput dose response assay to identify inhibitors of phospholipase C isozymes (PLC-gamma1).
[17] = target: 1-phosphatidylinositol 4,5-bisphosphate phosphodiesterase beta-3 (Homo sapiens, UniProt Q01970); test: Fluorescence-based biochemical high throughput dose response assay to identify inhibitors of phospholipase C isozymes (PLC-B3).
[18] = target: T3, Disintegrin and metalloproteinase domain-containing protein 17; test: inhibition of ADAM17 substrate cleavage – biochemical, quenched FRET substrate, counter-screen for ADAM10 exosite inhibitor project, dose response (AID 743253)
[19] = potency of ADAM10 substrate cleavage blockers – biochemical, QFRET, dose response (AID 743254);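 also: ADAM10 enzyme with the DM2 quenched FRET peptide as substrate; EDANS fluorescence gain as the protease cuts the substrate; inhibitor potency against ADAM10 proteolytic activity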
[20] = target: NAD-dependent protein deacylase sirtuin-5, mitochondrial (Homo sapiens, UniProt Q9NXA8); test: sirtuin-5 deacylation blockers, concentration series – biochemical, fluorescence imaging, cherry-pick, set 5, dose response (AID 720591);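 also: desuccinylation of succinyl peptide AMC substrate read as fluorescence after trypsin release; potency of inhibitors that lower fluorescence and may act on trypsin instead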
[21] = IGROV1 cell killing – plate reader, dry powder samples, PAX8 inhibitor project, dose response (AID 743043); assay type: functional, cell-based; details: IGROV-1
[22] = A2780 cell killing – plate reader, dry powder samples, cytotoxicity control, dose response (AID 743046); assay type: functional, cell-based
[23] = OVCAR8 cell viability loss – plate reader, dry powder samples, PAX8 project, dose response (AID 743197); assay type: functional, cell-based; details: OVCAR-8
Paired box protein Pax-8 = Paired box protein Pax-8 (Homo sapiens, UniProt Q06710); test: PAX8 transcriptional activity inhibition in RMG-I – RMG-I cells, luciferase, cherry-pick, dose response (AID 687027); assay type: functional, cell-based;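 also: luciferase reporter driven by Pax8 target thyroperoxidase promoter measured by SteadyGlo luminescence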
[24] = OVCAR-3 cell viability loss – plate reader, dry powder samples, PAX8 inhibitor project, dose response (AID 743044); assay type: functional, cell-based
[25] = toxicity toward immortalized ovarian surface epithelium – cell-based, plate reader, dry powder samples, cytotoxicity control for PAX8 inhibitor project, dose response (AID 743045); assay type: functional
Caspase-7 = target: T4, Caspase-7 (Homo sapiens, UniProt P55210); test: caspase-7 enzyme inhibition, selectivity check – biochemical, DEVD-R110 fluorescence, cherry-pick, selectivity assay for caspase-6 inhibitor project, dose response (AID 743295); assay type: functional
T4 sequence (P55210 whole entry): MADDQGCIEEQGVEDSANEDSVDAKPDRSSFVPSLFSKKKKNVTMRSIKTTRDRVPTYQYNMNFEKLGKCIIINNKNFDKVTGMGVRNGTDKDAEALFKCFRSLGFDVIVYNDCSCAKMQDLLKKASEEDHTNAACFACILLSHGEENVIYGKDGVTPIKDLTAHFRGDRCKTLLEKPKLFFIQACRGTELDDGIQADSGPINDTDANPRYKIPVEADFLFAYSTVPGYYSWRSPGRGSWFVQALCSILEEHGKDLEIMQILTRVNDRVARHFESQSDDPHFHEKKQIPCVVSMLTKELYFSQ

Caspase-6 = target: T5, Caspase-6 (Homo sapiens, UniProt P55212); test: inhibition of CASP6 peptide cleavage – biochemical, VEID-R110 fluorescence, cherry-pick, dose response (AID 720632)
T5 sequence (P55212 whole entry): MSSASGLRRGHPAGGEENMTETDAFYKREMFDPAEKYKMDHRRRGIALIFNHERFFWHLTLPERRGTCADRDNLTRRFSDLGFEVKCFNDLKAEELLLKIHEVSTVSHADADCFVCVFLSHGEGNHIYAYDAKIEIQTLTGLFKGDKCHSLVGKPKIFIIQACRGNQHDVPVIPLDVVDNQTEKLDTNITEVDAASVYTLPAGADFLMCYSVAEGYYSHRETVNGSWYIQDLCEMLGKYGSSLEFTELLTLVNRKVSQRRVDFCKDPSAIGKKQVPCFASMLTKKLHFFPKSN

Caspase-9 = Caspase-9 (Homo sapiens, UniProt P55211); test: inhibitors of purified CASP9 protease – biochemical, fluorescence, plate reader, cherry-picked samples, selectivity assay for caspase-6 inhibitor project, dose response (AID 743293)
[26] = viability loss in MITF-independent A375 cells – cell-based, CellTiter-Glo luminescence, dry powder, set 2, counter-screen for MITF inhibitor project, dose response (AID 624489); assay type: functional; details: A-375;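 also: actives are compounds lowering A375 viability meaning general cytotoxicity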
[27] = cytotoxicity in MITF-independent A375 cells – cell-based, CellTiter-Glo luminescence, dry powder, set 4, counter-screen for MITF inhibitor project, dose response (AID 624364); assay type: functional; details: A-375;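 also: A375 melanoma cells are MITF independent so this is a counter screen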
[28] = MITF: Counter assay: A375 proliferation Measured in Cell-Based System Using Plate Reader - 2084-03_Inhibitor_Dose_DryPowder_Activity_Set8.; assay type: functional; details: A-375
[29] = MITF Orthogonal Assay: SK-MEL-5 CTG Assay Measured in Cell-Based System Using Plate Reader - 2084-02_Inhibitor_Dose_DryPowder_Activity_Set7.; assay type: functional
[30] = inhibitors of TRPM1-promoter reporter in SK-MEL-5 – cell-based, luciferase, dry powder, set 8, MITF inhibitor project, dose response (AID 624430); assay type: functional
Fibrinogen beta chain [31] = target: T6, Fibrinogen beta chain (Homo sapiens, UniProt P02675); test: Fluorescence polarization-based biochemical high throughput dose response assay to identify inhibitors that disrupt the binding of a cyclic peptide (Tn6) to the fibrin proteolytic product D-Dimer and fragment E complex [DD(E )].
Fibrinogen beta chain [32] = target: T6, Fibrinogen beta chain; test: Fluorescence polarization-based biochemical high throughput dose response assay to identify inhibitors that disrupt the binding of a cyclic peptide (Tn7) to the fibrin proteolytic product D-Dimer and fragment E complex [DD(E )].
[33] = viability of BHK-21 cells – cell-based, secondary screen, cytotoxicity control for flavivirus guanylyltransferase probe project (AID 624078); assay type: functional
Kallikrein-7 = Kallikrein-7 (Homo sapiens, UniProt P49862); test: Fluorescence Intensity-based biochemical primary high throughput dose response assay to identify activators of kallikrein-7 (K7) zymogen.
Chain of Kallikrein-7 (P49862 whole entry): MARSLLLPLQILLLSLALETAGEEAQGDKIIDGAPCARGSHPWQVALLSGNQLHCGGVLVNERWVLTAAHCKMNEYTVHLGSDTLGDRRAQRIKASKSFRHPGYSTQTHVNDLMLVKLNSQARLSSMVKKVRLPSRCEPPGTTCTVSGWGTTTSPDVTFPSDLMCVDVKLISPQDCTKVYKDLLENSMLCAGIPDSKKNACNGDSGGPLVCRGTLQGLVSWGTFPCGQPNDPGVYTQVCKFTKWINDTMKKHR

T6 sequence (P02675 whole entry, the tested form may be a part): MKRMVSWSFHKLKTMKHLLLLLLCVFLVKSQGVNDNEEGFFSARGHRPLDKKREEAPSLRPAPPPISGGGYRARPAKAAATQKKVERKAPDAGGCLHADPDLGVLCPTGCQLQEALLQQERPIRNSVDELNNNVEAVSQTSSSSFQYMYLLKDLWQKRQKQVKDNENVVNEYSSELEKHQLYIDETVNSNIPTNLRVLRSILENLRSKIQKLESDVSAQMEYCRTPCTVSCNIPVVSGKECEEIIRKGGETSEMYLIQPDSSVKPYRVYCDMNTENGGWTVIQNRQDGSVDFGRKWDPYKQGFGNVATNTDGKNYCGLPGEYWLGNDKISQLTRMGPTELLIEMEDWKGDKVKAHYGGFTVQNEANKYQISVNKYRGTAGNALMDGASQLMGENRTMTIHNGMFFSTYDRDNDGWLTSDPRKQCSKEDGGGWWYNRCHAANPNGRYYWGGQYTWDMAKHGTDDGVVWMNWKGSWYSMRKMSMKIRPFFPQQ
T3 sequence (P78536 whole entry, the tested form may be a part): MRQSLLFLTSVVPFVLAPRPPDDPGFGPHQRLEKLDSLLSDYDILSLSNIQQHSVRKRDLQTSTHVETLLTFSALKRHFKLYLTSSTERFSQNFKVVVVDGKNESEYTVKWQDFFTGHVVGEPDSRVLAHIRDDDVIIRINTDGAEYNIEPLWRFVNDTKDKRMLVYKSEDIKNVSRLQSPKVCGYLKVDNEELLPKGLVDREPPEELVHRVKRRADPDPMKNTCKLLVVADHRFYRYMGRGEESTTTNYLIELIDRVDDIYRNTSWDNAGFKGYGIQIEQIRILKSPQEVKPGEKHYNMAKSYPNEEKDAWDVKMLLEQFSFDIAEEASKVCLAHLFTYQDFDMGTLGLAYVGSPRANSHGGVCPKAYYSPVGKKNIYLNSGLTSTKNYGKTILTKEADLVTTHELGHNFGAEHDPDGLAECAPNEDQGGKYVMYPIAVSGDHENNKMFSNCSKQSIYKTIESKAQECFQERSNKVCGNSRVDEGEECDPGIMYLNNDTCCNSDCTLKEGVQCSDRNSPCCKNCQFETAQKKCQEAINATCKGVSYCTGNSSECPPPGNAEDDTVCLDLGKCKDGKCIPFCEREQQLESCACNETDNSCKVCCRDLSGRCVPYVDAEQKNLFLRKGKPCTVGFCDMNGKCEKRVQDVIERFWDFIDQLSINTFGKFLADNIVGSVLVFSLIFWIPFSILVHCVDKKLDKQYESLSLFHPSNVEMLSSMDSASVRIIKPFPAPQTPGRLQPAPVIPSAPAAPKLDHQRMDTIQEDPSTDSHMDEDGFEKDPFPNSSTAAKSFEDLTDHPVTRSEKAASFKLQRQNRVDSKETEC
Chain of Nonstructural protein 1 (Q194T2 whole entry): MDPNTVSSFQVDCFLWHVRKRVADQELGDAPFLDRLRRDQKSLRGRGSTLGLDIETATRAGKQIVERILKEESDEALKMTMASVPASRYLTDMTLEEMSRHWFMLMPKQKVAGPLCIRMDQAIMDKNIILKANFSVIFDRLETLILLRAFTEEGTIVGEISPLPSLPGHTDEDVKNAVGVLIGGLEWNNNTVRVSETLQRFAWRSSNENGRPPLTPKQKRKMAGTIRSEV
Chain of Caspase-9 (P55211 1-315 limits assumed): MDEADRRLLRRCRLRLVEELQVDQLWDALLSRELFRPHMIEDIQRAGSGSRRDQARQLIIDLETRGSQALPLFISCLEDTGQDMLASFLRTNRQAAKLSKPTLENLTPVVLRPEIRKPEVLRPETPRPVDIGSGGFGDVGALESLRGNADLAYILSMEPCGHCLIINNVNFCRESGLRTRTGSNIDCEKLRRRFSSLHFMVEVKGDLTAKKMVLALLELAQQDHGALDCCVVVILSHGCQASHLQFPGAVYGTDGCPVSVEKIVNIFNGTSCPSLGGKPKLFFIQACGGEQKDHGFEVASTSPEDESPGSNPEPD
Chain of Caspase-9 (P55211 331-416 limits assumed): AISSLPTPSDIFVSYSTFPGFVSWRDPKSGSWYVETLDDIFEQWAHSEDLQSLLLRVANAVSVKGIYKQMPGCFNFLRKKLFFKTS
Chain of NAD-dependent protein deacylase sirtuin-5, mitochondrial (Q9NXA8 whole entry): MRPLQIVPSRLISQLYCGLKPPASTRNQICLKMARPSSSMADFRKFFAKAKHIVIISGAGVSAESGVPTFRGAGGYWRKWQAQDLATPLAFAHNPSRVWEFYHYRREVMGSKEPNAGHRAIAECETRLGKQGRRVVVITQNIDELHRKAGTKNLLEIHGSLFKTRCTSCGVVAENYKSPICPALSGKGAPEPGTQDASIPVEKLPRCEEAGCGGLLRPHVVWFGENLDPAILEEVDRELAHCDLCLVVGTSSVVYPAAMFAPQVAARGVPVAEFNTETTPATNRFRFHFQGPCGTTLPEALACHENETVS
Chain of Endoplasmic reticulum aminopeptidase 1 (Q9NZ08 whole entry): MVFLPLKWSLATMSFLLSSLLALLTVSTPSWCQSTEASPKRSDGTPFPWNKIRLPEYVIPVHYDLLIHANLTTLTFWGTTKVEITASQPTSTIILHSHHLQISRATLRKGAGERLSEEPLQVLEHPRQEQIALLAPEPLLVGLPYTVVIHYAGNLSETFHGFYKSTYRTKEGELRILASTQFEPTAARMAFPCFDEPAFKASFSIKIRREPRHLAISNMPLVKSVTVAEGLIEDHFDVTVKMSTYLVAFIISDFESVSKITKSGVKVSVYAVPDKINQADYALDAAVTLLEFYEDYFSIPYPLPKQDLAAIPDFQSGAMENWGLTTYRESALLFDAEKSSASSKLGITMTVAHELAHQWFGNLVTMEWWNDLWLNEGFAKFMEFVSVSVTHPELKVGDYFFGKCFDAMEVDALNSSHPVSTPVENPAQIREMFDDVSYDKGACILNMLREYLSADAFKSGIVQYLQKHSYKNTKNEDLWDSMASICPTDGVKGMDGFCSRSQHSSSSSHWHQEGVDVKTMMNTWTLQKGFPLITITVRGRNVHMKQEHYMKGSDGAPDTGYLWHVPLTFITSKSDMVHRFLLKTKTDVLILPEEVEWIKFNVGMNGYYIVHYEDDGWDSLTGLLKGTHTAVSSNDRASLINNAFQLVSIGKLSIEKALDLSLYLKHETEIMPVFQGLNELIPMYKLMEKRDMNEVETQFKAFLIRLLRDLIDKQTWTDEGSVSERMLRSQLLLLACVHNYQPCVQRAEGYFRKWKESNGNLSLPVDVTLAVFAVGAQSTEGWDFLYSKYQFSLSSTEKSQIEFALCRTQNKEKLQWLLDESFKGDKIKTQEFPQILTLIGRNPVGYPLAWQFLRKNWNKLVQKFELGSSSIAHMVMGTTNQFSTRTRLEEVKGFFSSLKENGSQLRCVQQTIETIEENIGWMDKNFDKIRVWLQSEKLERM
Chain of 1-phosphatidylinositol 4,5-bisphosphate phosphodiesterase gamma-1 (P19174 whole entry): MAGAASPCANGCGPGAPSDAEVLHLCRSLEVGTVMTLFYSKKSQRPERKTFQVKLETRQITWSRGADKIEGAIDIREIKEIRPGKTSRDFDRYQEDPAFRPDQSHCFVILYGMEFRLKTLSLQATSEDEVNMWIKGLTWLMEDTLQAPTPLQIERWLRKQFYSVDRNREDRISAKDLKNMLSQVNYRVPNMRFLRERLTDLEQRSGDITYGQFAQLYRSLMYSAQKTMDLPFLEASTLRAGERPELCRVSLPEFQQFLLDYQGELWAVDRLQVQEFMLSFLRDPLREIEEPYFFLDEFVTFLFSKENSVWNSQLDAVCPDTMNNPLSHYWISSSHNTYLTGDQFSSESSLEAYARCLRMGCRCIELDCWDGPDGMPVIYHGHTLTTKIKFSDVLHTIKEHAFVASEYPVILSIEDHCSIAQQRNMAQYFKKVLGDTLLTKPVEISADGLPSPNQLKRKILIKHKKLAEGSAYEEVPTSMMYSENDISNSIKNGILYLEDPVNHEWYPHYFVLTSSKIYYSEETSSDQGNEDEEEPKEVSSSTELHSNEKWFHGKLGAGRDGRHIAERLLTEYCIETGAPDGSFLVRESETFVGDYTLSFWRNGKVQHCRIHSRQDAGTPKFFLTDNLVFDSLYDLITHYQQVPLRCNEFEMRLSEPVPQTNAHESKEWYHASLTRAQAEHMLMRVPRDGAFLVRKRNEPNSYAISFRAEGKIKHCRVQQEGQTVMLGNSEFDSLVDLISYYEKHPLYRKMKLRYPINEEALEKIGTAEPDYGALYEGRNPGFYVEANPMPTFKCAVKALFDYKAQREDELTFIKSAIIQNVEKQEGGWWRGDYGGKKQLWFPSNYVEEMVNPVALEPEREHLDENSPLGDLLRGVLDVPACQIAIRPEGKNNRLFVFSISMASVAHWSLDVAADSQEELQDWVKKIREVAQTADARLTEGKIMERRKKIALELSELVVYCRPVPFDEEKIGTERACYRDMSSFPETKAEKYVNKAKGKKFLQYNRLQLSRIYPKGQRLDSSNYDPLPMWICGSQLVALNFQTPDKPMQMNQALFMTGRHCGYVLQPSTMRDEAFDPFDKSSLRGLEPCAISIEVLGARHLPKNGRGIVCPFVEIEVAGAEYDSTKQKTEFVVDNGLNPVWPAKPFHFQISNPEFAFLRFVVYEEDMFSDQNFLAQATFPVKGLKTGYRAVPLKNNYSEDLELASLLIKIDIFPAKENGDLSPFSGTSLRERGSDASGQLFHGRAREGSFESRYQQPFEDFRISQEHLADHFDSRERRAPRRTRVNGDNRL

SMILES: CCCOc1ccccc1-n1sc2c(c1=S)-c1cc(OC)cc3c1N(C(=O)C3=O)C2(C)C
- AC50 [1]: 5.35 µM (active)
- EC50 [2]: 22 µM (active)
- IC50 (Nonstructural protein 1): 9.35 µM (active)
- CC50 [3]: 21.4 µM (active)
- AC50 [4]: 19.4 µM (active)
- EC50 [5]: 19.9 µM (active)

SMILES: CCOc1ccc2nc(NCCN=C(S)NCCCN(C)C)c(C#N)cc2c1
- AC50 [6]: > 52 µM (inactive)
- AC50 (cells [7]): > 32 µM (inactive)
- AC50 (cells [8]): > 52 µM (inactive)
- AC50 (cells [9]): > 52 µM (inactive)

SMILES: Cc1cc2nn(-c3ccc(F)cc3)nc2cc1N
- EC50 [10]: > 67.5 µM (inactive)
- IC50 (Protein skinhead-1): > 100 µM (inactive)

SMILES: CCCCc1cc(=O)oc2cc(O)ccc12
- IC50 (H9c2): > 79 µM (inactive)
- AC50 [11]: 7.25 µM (active)

SMILES: NS(=O)(=O)c1ccc(NCc2cc(Cl)ccc2OCc2ccc(F)cc2)cc1
- IC50 [12]: > 23.2 µM (inactive)
- IC50 [13]: > 69.5 µM (inactive)

SMILES: C=CCc1ccc(OCCCCOc2ccc(C(=O)O)cc2)c(OC)c1
- IC50 [14]: > 67.5 µM (inactive)
- EC50 [15]: > 67.5 µM (inactive)

SMILES: Cc1cc(OCC(=O)OCC(=O)NCc2ccc3c(c2)OCO3)ccc1Cl
- IC50 [16]: > 123 µM (inactive)
- IC50 [17]: > 123 µM (inactive)

SMILES: CC(O)(c1ccc(F)c(F)c1)c1nc(-c2cc3ccccc3o2)cs1 (stereo unspecified)
- IC50 [18]: > 69.5 µM (inactive)
- IC50 [19]: 10.5 µM (inactive)

SMILES: O=C(O)c1ccc(S(=O)(=O)N(Cc2ccccc2)C2CCCCC2)cc1
- AC50 [20]: > 30 µM (inactive)

SMILES: CS(=O)(=O)Nc1ccc2c(c1)[C@@H]1C[C@@H](CC(=O)NCc3ccc(Oc4ccccc4)cc3)O[C@@H](CO)[C@@H]1O2
- AC50 [21]: 6.7 µM (active)
- AC50 [22]: 6.31 µM (active)
- AC50 [23]: 11.3 µM (active)
- AC50 (Paired box protein Pax-8): 1.95 µM (active)
- AC50 [24]: 3.38 µM (active)
- AC50 [25]: 8.81 µM (active)

SMILES: O=C(C[C@@H]1C[C@H]2c3cc(NC(=O)NC4CCCCC4)ccc3O[C@H]2[C@H](CO)O1)NCc1ccccn1
- AC50 (Caspase-7): 29.7 µM (active)
- AC50 (Caspase-6): 7.79 µM (active)
- AC50 (Caspase-9): 53.5 µM (active)

SMILES: O=C1C(NS(=O)(=O)c2ccc(Br)cc2)=C(N2CCOCC2)C(=O)c2ccccc21
- AC50 [26]: > 70 µM (inactive)
- AC50 [27]: > 70 µM (inactive)

SMILES: CN1CCN(C2=C(Nc3cccc(Br)c3)C(=O)c3ccccc3C2=O)CC1
- AC50 [28]: 39.3 µM (active)
- AC50 [29]: 12.3 µM (active)
- AC50 [30]: 4.79 µM (active)

SMILES: O=C(CSc1nnc(SCc2cccc3ccccc23)s1)Nc1ccc(S(=O)(=O)Nc2nccs2)cc1
- IC50 (Fibrinogen beta chain [31]): 15.6 µM (inactive)
- IC50 (Fibrinogen beta chain [32]): > 83.3 µM (inactive)

SMILES: O=S(=O)(Nc1cc(Sc2ccccc2)c(O)c2ccccc12)c1ccc(F)cc1
- CC50 [33]: 13.4 µM (active)

SMILES: COc1ccc(/C=N/NC(=O)c2cc3c(ccc4ccccc43)o2)cc1OC
- EC50 (Kallikrein-7): > 23.2 µM (inactive)
